Molecular target: human adenosine A3 receptor (Homo sapiens (Human), UniProt P0DMS8)
Test: Intracellular cAMP levels (inhibition of forskolin-stimulated cAMP production)
Format: cell-based
Settings: for EC50: CHO cells expressing human adenosine A3 receptors, forskolin 10 μM; for CAMP Efficacy (%): maximal response as percentage of the response produced by 100 nM IB-MECA
In short: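 CHO-K1 cells stably expressing human A3 receptor were exposed to compound (0.1 nM–1 μM) for 5 min at 37 °C, then 10 μM forskolin for 10 min. cAMP measured by competitive enzyme immunoassay (OD 450 nm); EC50 from Hill fit of inhibition, maximum relative to 100 nM IB-MECA.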

human adenosine A3 receptor, sequence (P0DMS8 whole entry): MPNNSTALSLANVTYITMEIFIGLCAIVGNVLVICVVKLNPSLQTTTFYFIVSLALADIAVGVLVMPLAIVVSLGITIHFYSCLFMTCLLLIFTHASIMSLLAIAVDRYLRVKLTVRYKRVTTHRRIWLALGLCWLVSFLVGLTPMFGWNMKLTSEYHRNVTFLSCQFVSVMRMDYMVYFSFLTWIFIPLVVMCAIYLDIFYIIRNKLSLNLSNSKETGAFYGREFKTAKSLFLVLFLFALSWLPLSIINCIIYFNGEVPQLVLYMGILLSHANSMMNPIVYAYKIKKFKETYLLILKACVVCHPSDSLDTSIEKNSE

Row | EC50 [nM] | CAMP Efficacy (%) | SMILES
1 | 1.33 | 80.97 | O[C@@H]1[C@H](O)[C@@H]2C[C@@H]2[C@H]1n1cnc2c(NCC(F)F)nc(Cl)nc21 [Compound 35, (1R,2R,3S,4R,5S)-4-(2-chloro-6-((2,2-difluoroethyl)amino)-9H-purin-9-yl)bicyclo[3.1.0]hexane-2,3-diol]
2 | 8.6 | 77.6 | O[C@@H]1[C@H](O)[C@@H]2C[C@@H]2[C@H]1n1cnc2c(NCC(F)F)cc(Cl)nc21 [Compound 40, (1R,2R,3S,4R,5S)-4-(5-chloro-7-((2,2-difluoroethyl)amino)-3H-imidazo[4,5-b]pyridin-3-yl)bicyclo[3.1.0]hexane-2,3-diol]
3 | > 10000 | 1 | CCNc1cc(C#CC2CC2)nc2c1ncn2[C@H]1[C@H](O)[C@H](O)[C@@H]2C[C@@H]21 [Compound 46, (1R,2R,3S,4R,5S)-4-(5-(cyclopropylethynyl)-7-(ethylamino)-3H-imidazo[4,5-b]pyridin-3-yl)bicyclo[3.1.0]hexane-2,3-diol]
4 | > 10000 | 1 | Cc1c(Cl)nc2c(ncn2[C@H]2[C@H](O)[C@H](O)[C@@H]3C[C@@H]32)c1NCC(F)F [Compound 60, (1R,2R,3S,4R,5S)-4-(5-chloro-7-((2,2-difluoroethyl)amino)-6-methyl-3H-imidazo[4,5-b]pyridin-3-yl)bicyclo[3.1.0]hexane-2,3-diol]

Source: patent US20230416245A1, “ADENOSINE ANALOGS FOR THE TREATMENT OF DISEASE” (BIOINTERVENE, INC., priority 2020, published 2023)
